Here are results for three molecules from ChEMBL document CHEMBL5126511, “The evolution paths of some reprehensive scaffolds of RORγt modulators, a perspective from medicinal chemistry” (Eur J Med Chem, 2022).

Data set [1] can be described thus: Metabolic stability in human liver microsomes assessed as clearance. It counts as ADME, Microsome. Particulars: read-out: CLH. Background: Microsomes from liver hold many membrane-bound enzymes, among them those of drug oxidation.
Data set [2] can be described thus: Metabolic stability in rat liver microsomes assessed as intrinsic clearance. Particulars: read-out: CLH. It counts as ADME, Microsome.

As to `Cc1ncc(C(=O)Nc2cn3ccnc3c(CN3CCN(C(=O)C4CCCC4)[C@@H](C)C3)c2C)cn1`, the microsomal CLint in data set [1] came to 30 µL/min/mg. Turning to `Cc1ncc(C(=O)Nc2cn3ccnc3c(CN3CCN(c4noc(C(C)(C)C)n4)[C@@H](C)C3)c2C)cn1`, the microsomal CLint in data set [2] was under 25 µL/min/mg. As to `Cc1ncc(C(=O)Nc2cc(Cl)cc(CN3CCN(C(=O)C4CCCC4)[C@@H](C)C3)c2C)cn1`, the results for the microsomal CLint in data set [1] and in data set [2] were 97 µL/min/mg and 33 µL/min/mg, respectively.
